Assay results from ChEMBL document CHEMBL5154845, “Dual-acting antitumor agents targeting the A2A adenosine receptor and histone deacetylases: Design and synthesis of 4-(furan-2-yl)-1H-pyrazolo[3,4-d]pyrimidin-6-amine derivatives” (Eur J Med Chem, 2022).
Active and inactive are the calls of the source. The calls are words filed in the database; no cut-off is given here.

Legend:
CT26 = assay: Antiproliferative activity against mouse CT26 cells after 72 hrs by CCK-8 assay; assay type: functional
Adenosine receptor A2a = Adenosine receptor A2a (Homo sapiens, UniProt P29274); assay: Displacement of [3H][…] from human A2AAR incubated for 60 mins by scintillation counter analysis
Adenosine receptor A1 = target: T1, Adenosine receptor A1 (Homo sapiens, UniProt P30542); assay: Displacement of [3H]DPCPX from human A1AR incubated for 60 mins by scintillation counter analysis
T1 sequence (P30542 whole entry): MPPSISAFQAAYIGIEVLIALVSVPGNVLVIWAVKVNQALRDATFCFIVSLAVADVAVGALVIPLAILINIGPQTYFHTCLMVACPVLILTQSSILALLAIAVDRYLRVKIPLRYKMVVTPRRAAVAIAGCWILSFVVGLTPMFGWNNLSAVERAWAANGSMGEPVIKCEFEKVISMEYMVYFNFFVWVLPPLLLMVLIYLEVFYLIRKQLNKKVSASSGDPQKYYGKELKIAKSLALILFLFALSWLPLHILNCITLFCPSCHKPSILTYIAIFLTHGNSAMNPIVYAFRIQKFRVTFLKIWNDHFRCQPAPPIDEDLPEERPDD

MC38 [1] = assay: Inhibition of HDAC in mouse MC38 cells assessed as increase in H4 acetylation at 0.1 to 10 uM measured by western blot analysis; assay type: cell-based; settings: dose 0.1-10 µM
Adenosine receptor A3 = target: T2, Adenosine receptor A3 (Homo sapiens, UniProt P0DMS8); assay: Displacement of [3H]HEMADO from human A3AR incubated for 60 mins by scintillation counter analysis
T2 sequence (P0DMS8 whole entry): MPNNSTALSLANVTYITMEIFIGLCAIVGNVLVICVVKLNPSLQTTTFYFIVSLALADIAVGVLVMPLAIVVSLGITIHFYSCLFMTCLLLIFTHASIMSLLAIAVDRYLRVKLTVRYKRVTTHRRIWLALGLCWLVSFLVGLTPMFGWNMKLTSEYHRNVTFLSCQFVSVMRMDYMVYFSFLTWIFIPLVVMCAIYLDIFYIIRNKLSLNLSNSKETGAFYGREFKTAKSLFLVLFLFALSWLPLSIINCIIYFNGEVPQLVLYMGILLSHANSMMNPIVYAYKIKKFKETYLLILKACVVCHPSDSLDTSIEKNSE

Histone deacetylase 8 = target: T3, Histone deacetylase 8 (Homo sapiens, UniProt Q9BY41); assay: Inhibition of HDAC8 (unknown origin) using trypsin and LGK(Ac)-AMC as substrates incubated for 1 hr and measured by fluorescence assay
T3 sequence (Q9BY41 whole entry): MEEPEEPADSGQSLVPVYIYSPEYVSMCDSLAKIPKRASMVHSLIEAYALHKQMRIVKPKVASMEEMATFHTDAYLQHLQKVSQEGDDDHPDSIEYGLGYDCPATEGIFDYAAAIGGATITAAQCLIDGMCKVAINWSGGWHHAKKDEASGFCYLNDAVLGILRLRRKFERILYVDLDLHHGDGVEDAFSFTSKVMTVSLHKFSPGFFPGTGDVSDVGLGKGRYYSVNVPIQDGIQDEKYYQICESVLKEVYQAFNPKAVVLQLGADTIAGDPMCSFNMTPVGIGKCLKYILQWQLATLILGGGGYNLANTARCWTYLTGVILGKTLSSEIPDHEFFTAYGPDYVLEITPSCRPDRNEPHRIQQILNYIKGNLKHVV

MC38 [2] = assay: Inhibition of HDAC in mouse MC38 cells assessed as increase in H3 acetylation at 0.1 to 10 uM measured by western blot analysis; assay type: cell-based; settings: dose 0.1-10 µM
MC-38 = assay: Antiproliferative activity against mouse MC38 cells after 72 hrs by CCK-8 assay; assay type: functional
Adenosine receptor A2b = target: T4, Adenosine receptor A2b (Homo sapiens, UniProt P29275); assay: Displacement of [3H]DPCPX from human A2BAR incubated for 60 mins by scintillation counter analysis
T4 sequence (P29275 whole entry): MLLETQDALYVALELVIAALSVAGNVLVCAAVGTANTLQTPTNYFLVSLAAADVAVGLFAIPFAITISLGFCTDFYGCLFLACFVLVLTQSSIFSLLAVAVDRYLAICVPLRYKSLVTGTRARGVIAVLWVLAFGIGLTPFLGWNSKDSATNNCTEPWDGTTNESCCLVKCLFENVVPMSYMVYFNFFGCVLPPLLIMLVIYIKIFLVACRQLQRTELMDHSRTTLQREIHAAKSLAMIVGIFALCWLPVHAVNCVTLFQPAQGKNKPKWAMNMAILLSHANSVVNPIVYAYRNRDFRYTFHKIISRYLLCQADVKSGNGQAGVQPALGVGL

[3] = target: T5, Protein deacetylase HDAC6 (Homo sapiens, UniProt Q9UBN7); assay: Inhibition of HDAC6 (unknown origin) using trypsin and LGK(Ac)-AMC as substrates incubated for 1 hr and measured by fluorescence assay
T5 sequence (Q9UBN7 whole entry): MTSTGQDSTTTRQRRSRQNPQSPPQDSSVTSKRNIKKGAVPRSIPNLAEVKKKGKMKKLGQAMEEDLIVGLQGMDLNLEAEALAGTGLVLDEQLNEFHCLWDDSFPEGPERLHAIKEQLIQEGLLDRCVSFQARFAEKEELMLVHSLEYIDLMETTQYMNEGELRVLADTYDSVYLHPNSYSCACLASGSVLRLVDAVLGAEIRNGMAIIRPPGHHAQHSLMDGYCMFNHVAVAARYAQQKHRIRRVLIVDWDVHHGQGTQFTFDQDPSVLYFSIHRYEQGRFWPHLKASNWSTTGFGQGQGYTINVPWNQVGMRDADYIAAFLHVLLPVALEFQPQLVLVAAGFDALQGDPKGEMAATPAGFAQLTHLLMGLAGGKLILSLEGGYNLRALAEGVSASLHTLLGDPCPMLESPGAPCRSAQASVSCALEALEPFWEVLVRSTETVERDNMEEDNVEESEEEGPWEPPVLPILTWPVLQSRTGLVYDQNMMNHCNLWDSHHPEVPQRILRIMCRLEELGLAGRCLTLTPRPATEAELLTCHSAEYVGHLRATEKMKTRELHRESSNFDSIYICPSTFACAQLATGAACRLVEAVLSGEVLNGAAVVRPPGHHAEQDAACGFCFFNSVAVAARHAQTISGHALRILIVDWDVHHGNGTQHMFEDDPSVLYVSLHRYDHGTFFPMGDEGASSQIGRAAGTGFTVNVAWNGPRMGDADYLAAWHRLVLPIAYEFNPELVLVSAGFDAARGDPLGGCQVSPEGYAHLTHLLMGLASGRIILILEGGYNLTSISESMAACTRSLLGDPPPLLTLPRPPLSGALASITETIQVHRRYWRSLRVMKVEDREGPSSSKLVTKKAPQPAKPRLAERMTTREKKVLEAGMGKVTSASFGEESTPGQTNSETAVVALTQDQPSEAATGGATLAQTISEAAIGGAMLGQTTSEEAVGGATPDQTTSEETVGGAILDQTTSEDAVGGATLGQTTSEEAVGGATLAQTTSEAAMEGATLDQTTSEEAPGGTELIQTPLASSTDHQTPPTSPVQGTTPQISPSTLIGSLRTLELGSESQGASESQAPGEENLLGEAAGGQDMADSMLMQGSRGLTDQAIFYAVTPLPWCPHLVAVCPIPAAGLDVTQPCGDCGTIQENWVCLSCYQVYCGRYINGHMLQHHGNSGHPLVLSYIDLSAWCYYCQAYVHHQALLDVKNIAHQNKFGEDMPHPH

Histone deacetylase 1 = Histone deacetylase 1 (Homo sapiens, UniProt Q13547); assay: Inhibition of HDAC1 (unknown origin) using trypsin and LGK(Ac)-AMC as substrates incubated for 1 hr and measured by fluorescence assay
Histone deacetylase 3 = Histone deacetylase 3 (Homo sapiens, UniProt O15379); assay: Inhibition of HDAC3 (unknown origin) using trypsin and LGK(Ac)-AMC as substrates incubated for 1 hr and measured by fluorescence assay
Histone deacetylase 2 = Histone deacetylase 2 (Homo sapiens, UniProt Q92769); assay: Inhibition of HDAC2 (unknown origin) using trypsin and LGK(Ac)-AMC as substrates incubated for 1 hr and measured by fluorescence assay
Sequence of Histone deacetylase 2 (Q92769 whole entry): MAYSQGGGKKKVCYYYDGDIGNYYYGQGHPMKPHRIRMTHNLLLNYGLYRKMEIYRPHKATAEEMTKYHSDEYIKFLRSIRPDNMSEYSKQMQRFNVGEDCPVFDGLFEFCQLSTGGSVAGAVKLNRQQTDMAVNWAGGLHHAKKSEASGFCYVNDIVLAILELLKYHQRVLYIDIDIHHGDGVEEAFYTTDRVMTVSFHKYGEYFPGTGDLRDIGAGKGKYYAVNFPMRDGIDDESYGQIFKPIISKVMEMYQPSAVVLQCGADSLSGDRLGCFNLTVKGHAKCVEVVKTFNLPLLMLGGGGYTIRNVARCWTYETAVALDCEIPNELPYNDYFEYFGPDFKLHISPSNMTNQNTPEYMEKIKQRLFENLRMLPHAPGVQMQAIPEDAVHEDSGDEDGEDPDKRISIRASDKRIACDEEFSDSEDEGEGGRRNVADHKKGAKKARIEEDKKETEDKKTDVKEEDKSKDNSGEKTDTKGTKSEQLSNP

Sequence of Adenosine receptor A2a (P29274 whole entry): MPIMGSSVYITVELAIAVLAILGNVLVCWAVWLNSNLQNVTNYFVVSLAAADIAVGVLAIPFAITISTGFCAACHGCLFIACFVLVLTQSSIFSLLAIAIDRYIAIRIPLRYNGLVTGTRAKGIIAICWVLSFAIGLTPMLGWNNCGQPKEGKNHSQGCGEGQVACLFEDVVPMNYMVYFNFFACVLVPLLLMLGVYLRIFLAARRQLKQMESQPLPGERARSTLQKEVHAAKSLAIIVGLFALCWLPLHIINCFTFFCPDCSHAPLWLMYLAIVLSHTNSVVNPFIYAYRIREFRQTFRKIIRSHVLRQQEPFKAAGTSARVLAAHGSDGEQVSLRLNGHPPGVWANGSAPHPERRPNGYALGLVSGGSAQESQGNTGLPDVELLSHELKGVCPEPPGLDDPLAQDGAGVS
Sequence of Histone deacetylase 3 (O15379 whole entry): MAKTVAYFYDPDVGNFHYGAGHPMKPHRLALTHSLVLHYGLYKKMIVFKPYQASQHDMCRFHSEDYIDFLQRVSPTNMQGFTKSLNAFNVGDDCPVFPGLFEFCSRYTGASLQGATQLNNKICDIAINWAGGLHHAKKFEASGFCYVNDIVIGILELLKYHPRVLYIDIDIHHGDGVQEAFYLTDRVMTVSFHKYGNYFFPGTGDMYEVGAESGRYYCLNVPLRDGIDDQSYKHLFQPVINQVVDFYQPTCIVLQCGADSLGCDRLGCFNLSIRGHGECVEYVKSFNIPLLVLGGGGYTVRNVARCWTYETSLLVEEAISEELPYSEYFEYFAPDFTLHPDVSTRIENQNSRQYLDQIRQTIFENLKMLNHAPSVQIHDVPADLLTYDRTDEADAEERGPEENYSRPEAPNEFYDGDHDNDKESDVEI
Sequence of Histone deacetylase 1 (Q13547 whole entry): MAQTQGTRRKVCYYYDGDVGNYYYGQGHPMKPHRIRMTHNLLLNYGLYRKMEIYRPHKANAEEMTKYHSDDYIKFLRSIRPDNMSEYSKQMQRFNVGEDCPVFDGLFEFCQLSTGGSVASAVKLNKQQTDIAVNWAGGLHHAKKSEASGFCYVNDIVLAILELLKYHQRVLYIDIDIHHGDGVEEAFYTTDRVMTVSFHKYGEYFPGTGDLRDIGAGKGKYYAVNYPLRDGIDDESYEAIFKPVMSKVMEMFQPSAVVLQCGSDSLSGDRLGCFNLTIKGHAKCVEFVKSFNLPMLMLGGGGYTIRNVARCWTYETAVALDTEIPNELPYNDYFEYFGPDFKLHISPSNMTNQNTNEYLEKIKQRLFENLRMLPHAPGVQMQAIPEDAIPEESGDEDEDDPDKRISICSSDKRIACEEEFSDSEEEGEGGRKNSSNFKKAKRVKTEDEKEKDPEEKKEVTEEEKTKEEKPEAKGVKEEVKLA

Q: Which results are given for `Nc1nc(-c2ccco2)c2cnn(Cc3cccc(OCCCCCCC(=O)NO)c3)c2n1`?
A: GI50 (CT26): 12600 nM; Ki (Adenosine receptor A2a): 10.3 nM; Ki (Adenosine receptor A1): 106 nM; inhibition (MC38 [1]): Active; Ki (Adenosine receptor A3): > 10000 nM; IC50 (Histone deacetylase 8): 1410 nM; inhibition (MC38 [2]): Active; GI50 (MC-38): 12200 nM; Ki (Adenosine receptor A2b): 513 nM; IC50 [3]: 2.1 nM; IC50 (Histone deacetylase 1): 18.5 nM; IC50 (Histone deacetylase 3): 13.6 nM; IC50 (Histone deacetylase 2): 16 nM
